Data from EP4563586A1, “NEW INHIBITORS OF LRRK2/PP1 INTERACTION” (Université Paris Cité, priority 2023, dated 2025).
Non-standard residues stand in square brackets, D forms with d. Residues, ends and D or L forms follow the SMILES beside them. No end group written: not given here. Ahx = NCCCCCC(=O)O

B1: Peptide 19 (VQGSRPGKNVQLTENE), fragment of PP1 (peptide)
peptide: VQGSRPGKNVQLTENE
notes: Synthetic peptide, isolated fragment of PP1
B2: Peptide 20 (AEVVAKFLHKHDLDLICRAH), fragment of PP1 (peptide)
peptide: AEVVAKFLHKHDLDLICRAH
notes: as for B1
B3: Peptide 21 (NPGGRPITPPRNSAKAKK), fragment of PP1 (peptide)
peptide: NPGGRPITPPRNSAKAKK
notes: as for B1

Tests used:
[1] = Peptide stability in human serum (MALDI-TOF); type: in vitro ADME; settings: for remaining at 24 h, 100 µM: after 24h of incubation at 37°C in human serum, 100 µM (Figure 6), read-out: peptide still present
Procedure: The peptides were incubated at 37°C in 250 µL of human serum (Gibco) for different periods of time. Samples were collected and peptide degradation stopped by freezing at -20°C. The peptide was extracted from samples using the Proteo Miner Protein Enrichment System (Bio-Rad). The percentage of intact peptide was estimated by MS using MALDI-TOFF using the protocol previously described (Bruker Autoflex II) according to the manufacturer's instructions. Measurements were performed in triplicate. MS data were analysed using the software Cliprot tools, Flex analysis, Bruker.

[2] = target: T1, Leucine-rich repeat kinase 2 (LRRK2), human (human, UniProt Q5S007 1-2527); assay: PP1 dodecapeptide array on cellulose membrane
T1 construct: Protein as present in MDA-MB231 lysates; also called dardarin
T1 sequence (Q5S007 whole entry R50H/L212S): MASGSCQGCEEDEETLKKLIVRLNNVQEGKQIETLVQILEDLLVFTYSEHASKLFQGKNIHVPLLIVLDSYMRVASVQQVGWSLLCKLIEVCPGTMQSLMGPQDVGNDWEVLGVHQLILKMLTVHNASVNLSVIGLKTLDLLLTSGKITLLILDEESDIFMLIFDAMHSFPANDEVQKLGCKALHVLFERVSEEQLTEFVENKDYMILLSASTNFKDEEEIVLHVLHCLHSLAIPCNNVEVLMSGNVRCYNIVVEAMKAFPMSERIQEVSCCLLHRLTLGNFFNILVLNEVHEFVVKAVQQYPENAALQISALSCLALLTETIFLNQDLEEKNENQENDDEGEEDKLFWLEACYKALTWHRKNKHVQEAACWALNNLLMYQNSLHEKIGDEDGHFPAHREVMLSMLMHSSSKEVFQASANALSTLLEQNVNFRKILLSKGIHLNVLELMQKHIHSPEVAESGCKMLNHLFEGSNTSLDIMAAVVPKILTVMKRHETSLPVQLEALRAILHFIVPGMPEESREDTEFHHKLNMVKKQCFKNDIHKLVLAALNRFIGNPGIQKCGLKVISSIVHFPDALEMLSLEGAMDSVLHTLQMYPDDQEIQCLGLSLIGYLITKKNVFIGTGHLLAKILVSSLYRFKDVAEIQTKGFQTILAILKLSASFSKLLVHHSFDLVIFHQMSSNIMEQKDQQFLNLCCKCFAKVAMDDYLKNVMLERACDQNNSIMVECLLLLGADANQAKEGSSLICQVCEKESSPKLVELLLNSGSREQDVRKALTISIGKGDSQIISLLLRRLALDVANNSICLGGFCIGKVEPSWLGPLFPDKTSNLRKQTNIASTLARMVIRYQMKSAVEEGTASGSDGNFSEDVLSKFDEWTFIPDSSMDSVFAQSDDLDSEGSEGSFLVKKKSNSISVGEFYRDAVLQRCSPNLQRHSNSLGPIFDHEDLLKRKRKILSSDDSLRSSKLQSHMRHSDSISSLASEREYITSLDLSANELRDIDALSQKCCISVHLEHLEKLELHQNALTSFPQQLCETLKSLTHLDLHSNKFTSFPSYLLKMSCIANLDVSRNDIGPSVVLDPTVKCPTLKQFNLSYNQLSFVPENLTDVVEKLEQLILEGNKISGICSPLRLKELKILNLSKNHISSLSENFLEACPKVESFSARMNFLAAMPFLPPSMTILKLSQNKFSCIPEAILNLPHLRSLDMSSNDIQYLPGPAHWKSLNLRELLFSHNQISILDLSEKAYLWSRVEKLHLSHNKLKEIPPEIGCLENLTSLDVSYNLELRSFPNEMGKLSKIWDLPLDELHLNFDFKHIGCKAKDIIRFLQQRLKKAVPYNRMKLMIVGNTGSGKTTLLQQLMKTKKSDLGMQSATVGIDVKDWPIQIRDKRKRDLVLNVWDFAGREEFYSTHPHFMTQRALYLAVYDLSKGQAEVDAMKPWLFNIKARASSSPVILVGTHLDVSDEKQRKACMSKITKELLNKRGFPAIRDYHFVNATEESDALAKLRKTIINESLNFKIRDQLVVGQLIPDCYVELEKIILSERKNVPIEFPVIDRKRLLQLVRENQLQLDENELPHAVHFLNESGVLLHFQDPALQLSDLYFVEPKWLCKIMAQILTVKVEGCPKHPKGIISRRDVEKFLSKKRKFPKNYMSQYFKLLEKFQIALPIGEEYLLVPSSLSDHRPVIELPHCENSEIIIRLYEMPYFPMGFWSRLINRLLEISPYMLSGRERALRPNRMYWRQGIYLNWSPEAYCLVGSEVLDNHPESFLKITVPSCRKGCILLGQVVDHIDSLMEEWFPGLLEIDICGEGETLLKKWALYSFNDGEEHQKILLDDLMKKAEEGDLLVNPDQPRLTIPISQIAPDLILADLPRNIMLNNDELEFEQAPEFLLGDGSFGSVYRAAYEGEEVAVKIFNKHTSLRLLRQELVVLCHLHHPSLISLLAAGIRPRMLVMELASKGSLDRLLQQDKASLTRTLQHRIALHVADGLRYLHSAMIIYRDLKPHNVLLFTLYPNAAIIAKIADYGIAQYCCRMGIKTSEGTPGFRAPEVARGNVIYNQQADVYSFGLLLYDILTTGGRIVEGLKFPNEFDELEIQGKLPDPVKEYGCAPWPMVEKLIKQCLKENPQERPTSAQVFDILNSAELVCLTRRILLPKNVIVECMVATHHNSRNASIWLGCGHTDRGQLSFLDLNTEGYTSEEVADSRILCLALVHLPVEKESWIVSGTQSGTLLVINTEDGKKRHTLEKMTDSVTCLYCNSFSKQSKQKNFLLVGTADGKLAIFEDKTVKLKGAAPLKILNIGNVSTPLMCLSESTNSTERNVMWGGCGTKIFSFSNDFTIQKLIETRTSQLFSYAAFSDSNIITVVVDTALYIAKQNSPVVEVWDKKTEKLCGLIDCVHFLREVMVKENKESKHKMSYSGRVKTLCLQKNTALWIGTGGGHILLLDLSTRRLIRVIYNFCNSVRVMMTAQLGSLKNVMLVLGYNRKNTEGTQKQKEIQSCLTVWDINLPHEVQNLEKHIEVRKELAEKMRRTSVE

remaining at 24 h, 100 µM [1]	stability in serum (resistance to proteases) ([1]; human serum, 37°C, result in words)	binding result [2]	Molecule
> 90%	particularly high	–	CC[C@H](C)[C@H](NC(=O)[C@H](CCC(=O)O)NC(=O)[C@H](CC(C)C)NC(=O)[C@H](CC(C)C)NC(=O)[C@H](CCCNC(=N)N)NC(=O)[C@H](CC(N)=O)NC(=O)[C@@H](NC(=O)[C@H](CC(C)C)NC(=O)[C@H](CCCNC(=N)N)NC(=O)[C@H](CO)NC(=O)[C@H](Cc1c[nH]c2ccccc12)NC(=O)[C@H](Cc1ccccc1)NC(=O)CN)[C@@H](C)CC)C(=O)NCCCCCC(=O)N[C@@H](CO)C(=O)N[C@@H](CCCNC(=N)N)C(=O)N[C@@H](CCCNC(=N)N)C(=O)N[C@H](C(=O)N[C@H](C(=O)N[C@@H](CO)C(=O)N[C@@H](CCCNC(=N)N)C(=O)N[C@@H](C)C(=O)N[C@@H](CCCCN)C(=O)N[C@@H](CC(C)C)C(=O)N[C@@H](C)C(=O)N[C@@H](C)C(=O)N[C@@H](C)C(=O)N[C@@H](CC(C)C)C(=O)O)[C@@H](C)CC)C(C)C [Peptide 1, GFWSRLINRLLEI- AHx -SRRVISRAKLAAAL] (H-GFWSRLINRLLEI[Ahx]SRRVISRAKLAAAL-OH)
> 90%	–	–	GFWSRLINRLLEIGGSSRRVISRAKLAAAL [Peptide 2, GFWSRLINRLLEI- GGS -SRRVISRAKLAAAL]
–	–	binds	B1
–	–	binds	B2
–	–	binds	B3
